Test results reported in patent US8029764B2, “Methods for detection of colorectal cancer” (The Johns Hopkins University, priority 2001, dated 2011).

Test system: colorectal tissue transcripts
Experiment: SAGE of normal, adenoma and cancer colorectal tissue (transcript tag counts)
Parameters: species or system human
How it was run: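 SAGE libraries from two normal colonic epithelium samples, two colorectal adenomas (FAP patients, >70% neoplastic cells) and two colorectal cancers. Transcripts counted as 15-base 3′ tags from oligo(dT)-selected mRNA; repeated ditags, linkers and MHC-locus tags excluded before statistical library comparison.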

[1] = normal colorectal tissue library 1
[2] = normal colorectal tissue library 2

Row | Sequence | AD1 (SAGE tag count) (SAGE library AD1) | AD2 (SAGE tag count) (SAGE library AD2) | CA1 (SAGE tag count) (SAGE library CA1) | CA2 (SAGE tag count) (SAGE library CA2) | NC1 (SAGE tag count) (SAGE library NC1) | NC2 (SAGE tag count) (SAGE library NC2) | AD1 (SAGE tag count) (adenoma library 1) | AD2 (SAGE tag count) (adenoma library 2) | CA1 (SAGE tag count) (cancer library 1) | CA2 (SAGE tag count) (cancer library 2) | NC1 (SAGE tag count) [1] | NC2 (SAGE tag count) [2]
1 | GTGGCGGGAA (chemistry not fully specified) | 1 | 0 | 4 | 0 | 3 | 15 | – | – | – | – | – | –
2 | AGCCCGACCA (chemistry not fully specified) | 2 | 4 | 1 | 3 | 16 | 8 | – | – | – | – | – | –
3 | ATGATGGCAC (chemistry not fully specified; the letters are possibly those of the target site) | 1 | 0 | 1 | 0 | 12 | 32 | – | – | – | – | – | –
4 | CTGGCCCTCG (chemistry not fully specified) | 1 | 3 | 15 | 14 | 186 | 52 | – | – | – | – | – | –
5 | TCACCGGTCA (chemistry not fully specified) | – | – | – | – | – | – | 10 | 10 | 5 | 6 | 118 | 75
6 | TTCTGTAGCC (chemistry not fully specified) | – | – | – | – | – | – | 4 | 2 | 4 | 2 | 13 | 23
7 | GGATGGCTTA (chemistry not fully specified) | 2 | 1 | 1 | 1 | 25 | 5 | – | – | – | – | – | –
8 | CATAGGTTTA (chemistry not fully specified) | 4 | 1 | 5 | 0 | 66 | 39 | – | – | – | – | – | –
9 | AATAAAGGCT (chemistry not fully specified) | 3 | 7 | 3 | 4 | 25 | 11 | – | – | – | – | – | –
10 | GCAAGAAAGT (chemistry not fully specified) | 0 | 4 | 0 | 1 | 48 | 0 | – | – | – | – | – | –
11 | GATGAATCCG (chemistry not fully specified) | 2 | 2 | 1 | 2 | 12 | 14 | – | – | – | – | – | –
12 | GGAACTGTGA (chemistry not fully specified) | 10 | 18 | 10 | 2 | 90 | 84 | – | – | – | – | – | –
13 | TACGGTGTGG (chemistry not fully specified) | – | – | – | – | – | – | 2 | 2 | 1 | 0 | 7 | 13
14 | CCCCCGCGGA (chemistry not fully specified) | 6 | 11 | 4 | 12 | 33 | 25 | – | – | – | – | – | –
15 | AGCAGGAGCA (chemistry not fully specified) | 6 | 3 | 7 | 6 | 50 | 14 | – | – | – | – | – | –
16 | CACCCCTGAT (chemistry not fully specified) | 58 | 58 | 13 | 36 | 73 | 169 | – | – | – | – | – | –
17 | GGAACAGGGG (chemistry not fully specified) | 1 | 0 | 0 | 2 | 1 | 13 | – | – | – | – | – | –
18 | TGCAGCACGA (chemistry not fully specified) | – | – | – | – | – | – | 5 | 30 | 24 | 16 | 6 | 185
19 | GGCTGCCTGC (chemistry not fully specified) | 4 | 3 | 5 | 2 | 13 | 11 | – | – | – | – | – | –

Row | Sequence | AD1 (SAGE tag count) (SAGE library AD1) | AD2 (SAGE tag count) (SAGE library AD2) | CA1 (SAGE tag count) (SAGE library CA1) | CA2 (SAGE tag count) (SAGE library CA2) | NC1 (SAGE tag count) (SAGE library NC1) | NC2 (SAGE tag count) (SAGE library NC2) | AD1 (SAGE tag count) (adenoma library 1) | AD2 (SAGE tag count) (adenoma library 2) | CA1 (SAGE tag count) (cancer library 1) | CA2 (SAGE tag count) (cancer library 2) | NC1 (SAGE tag count) [1] | NC2 (SAGE tag count) [2]
20 | CTCAGAACTT (chemistry not fully specified) | 1 | 0 | 0 | 0 | 18 | 3 | – | – | – | – | – | –
21 | CTTCTTGCCC (chemistry not fully specified) | 2 | 2 | 0 | 1 | 29 | 2 | – | – | – | – | – | –
22 | GGCTGGGCCT (chemistry not fully specified) | 14 | 5 | 10 | 8 | 46 | 25 | – | – | – | – | – | –
23 | TGAGTGACAG (chemistry not fully specified) | – | – | – | – | – | – | 0 | 6 | 3 | 7 | 9 | 68
24 | CCCTCCCGAA (chemistry not fully specified) | 9 | 14 | 18 | 7 | 89 | 54 | – | – | – | – | – | –
25 | GATGACCCCC (chemistry not fully specified) | 4 | 3 | 3 | 3 | 42 | 49 | – | – | – | – | – | –
26 | GTGTTGGGGG (chemistry not fully specified) | – | – | – | – | – | – | 8 | 6 | 1 | 3 | 21 | 19
27 | CCTGCCCCCC (chemistry not fully specified) | 6 | 3 | 11 | 4 | 20 | 30 | – | – | – | – | – | –
28 | TTGGGGTTTC (chemistry not fully specified) | – | – | – | – | – | – | 50 | 81 | 67 | 50 | 111 | 184
29 | AATAGTTTCC (chemistry not fully specified) | 2 | 3 | 6 | 1 | 7 | 16 | – | – | – | – | – | –
30 | ATGGTGGGGG (chemistry not fully specified) | 11 | 9 | 1 | 2 | 25 | 30 | – | – | – | – | – | –
31 | TAATTTGCAT (chemistry not fully specified) | – | – | – | – | – | – | 1 | 1 | 2 | 0 | 25 | 2
32 | AAGAAAGCTC (chemistry not fully specified) | 0 | 2 | 1 | 5 | 20 | 6 | – | – | – | – | – | –
33 | GGGACGAGTG (chemistry not fully specified) | 1 | 3 | 6 | 1 | 20 | 6 | – | – | – | – | – | –
34 | ATGTGGGCTC (chemistry not fully specified) | 0 | 0 | 0 | 0 | 7 | 2 | – | – | – | – | – | –
35 | CCTGTGACAG (chemistry not fully specified) | 0 | 4 | 3 | 1 | 22 | 27 | – | – | – | – | – | –
36 | GCGAAACCCT (chemistry not fully specified) | 123 | 43 | 64 | 98 | 167 | 565 | – | – | – | – | – | –
37 | CAAATAAAAG (chemistry not fully specified) | 2 | 0 | 1 | 1 | 9 | 12 | – | – | – | – | – | –
38 | TTTTTACTGA (chemistry not fully specified) | – | – | – | – | – | – | 10 | 10 | 8 | 1 | 32 | 19
